Experiments:
Assay in all cases: relative viability (nuclei count vs DMSO), 5 days (fraction); higher = more cells survive
17-AAG + Phenformin = compound: C=CCNC1=C2C[C@@H](C)C[C@H](OC)[C@H](O)[C@@H](C)/C=C(\C)[C@H](OC(N)=O)[C@@H](OC)/C=C\C=C(/C)C(=O)NC(=CC1=O)C2=O [17-AAG] + N=C(N)NC(=N)NCCc1ccccc1 [Phenformin] (partner 250 µM)
Method in brief: (§1)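 Cells from lung cancer lines were seeded into 1536-well plates and, one day later, dosed by pin tool. Treatments were either a single drug or a fixed dose of an anchor drug with five library-drug doses (not always all listed) in √10 steps. After 5 days, nuclei were stained in a one-step fixation (final 0.05% Triton X-100, 1% formaldehyde, 1 ug/ml Hoechst) and counted on 4× images, and relative viability is the treated-to-vehicle nuclei ratio, as the median of duplicate plates.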

17-AAG + OSI-027 = compound: C=CCNC1=C2C[C@@H](C)C[C@H](OC)[C@H](O)[C@@H](C)/C=C(\C)[C@H](OC(N)=O)[C@@H](OC)/C=C\C=C(/C)C(=O)NC(=CC1=O)C2=O [17-AAG] + COc1cccc2cc(-c3nc([C@H]4CC[C@H](C(=O)O)CC4)n4ncnc(N)c34)[nH]c12 [OSI-027] (partner 0.5 µM)
Method in brief: as §1

17-AAG + Crizotinib = compound: C=CCNC1=C2C[C@@H](C)C[C@H](OC)[C@H](O)[C@@H](C)/C=C(\C)[C@H](OC(N)=O)[C@@H](OC)/C=C\C=C(/C)C(=O)NC(=CC1=O)C2=O [17-AAG] + C[C@@H](Oc1cc(-c2cnn(C3CCNCC3)c2)cnc1N)c1c(Cl)ccc(F)c1Cl [Crizotinib] (partner 1 µM)
Method in brief: as §1

17-AAG + Trametinib = compound: C=CCNC1=C2C[C@@H](C)C[C@H](OC)[C@H](O)[C@@H](C)/C=C(\C)[C@H](OC(N)=O)[C@@H](OC)/C=C\C=C(/C)C(=O)NC(=CC1=O)C2=O [17-AAG] + CC(=O)Nc1cccc(-n2c(=O)n(C3CC3)c(=O)c3c(Nc4ccc(I)cc4F)n(C)c(=O)c(C)c32)c1 [Trametinib] (partner 0.02 µM)
Method in brief: as §1

LC-2-ad was tested, and the relative viability (17-AAG + Phenformin; first compound 0.00128 µM) was 0.476, the relative viability (17-AAG + Phenformin; first compound 0.004048 µM) was 0.523 and the relative viability (17-AAG + Phenformin; first compound 0.0128 µM) was 0.273. For the same cell line, the relative viability (17-AAG + Phenformin; first compound 0.04048 µM) was 0.258, the relative viability (17-AAG + Phenformin; first compound 0.128 µM) was 0.227 and the relative viability (17-AAG + OSI-027; first compound 0.00128 µM) was 0.699. It also gave a relative viability (17-AAG + OSI-027; first compound 0.004048 µM) of 0.542, a relative viability (17-AAG + OSI-027; first compound 0.0128 µM) of 0.426 and a relative viability (17-AAG + OSI-027; first compound 0.04048 µM) of 0.301. The relative viability (17-AAG + OSI-027; first compound 0.128 µM) was 0.241, the relative viability (17-AAG + Crizotinib; first compound 0.00128 µM) was 0.452 and the relative viability (17-AAG + Crizotinib; first compound 0.004048 µM) was 0.448. It also gave a relative viability (17-AAG + Crizotinib; first compound 0.0128 µM) of 0.527, a relative viability (17-AAG + Crizotinib; first compound 0.04048 µM) of 0.278 and a relative viability (17-AAG + Crizotinib; first compound 0.128 µM) of 0.171. For the same cell line, the relative viability (17-AAG + Trametinib; first compound 0.00128 µM) was 0.974, the relative viability (17-AAG + Trametinib; first compound 0.004048 µM) was 0.954 and the relative viability (17-AAG + Trametinib; first compound 0.0128 µM) was 0.875. The relative viability (17-AAG + Trametinib; first compound 0.04048 µM) was 0.408 and the relative viability (17-AAG + Trametinib; first compound 0.128 µM) was 0.223.
LCLC-97TM1 was tested, and the relative viability (17-AAG + Phenformin; first compound 0.00128 µM) was 0.454, the relative viability (17-AAG + Phenformin; first compound 0.004048 µM) was 0.402 and the relative viability (17-AAG + Phenformin; first compound 0.0128 µM) was 0.428. For the same cell line, the relative viability (17-AAG + Phenformin; first compound 0.04048 µM) was 0.247, the relative viability (17-AAG + Phenformin; first compound 0.128 µM) was 0.143 and the relative viability (17-AAG + OSI-027; first compound 0.00128 µM) was 0.506. For the same cell line, the relative viability (17-AAG + OSI-027; first compound 0.004048 µM) was 0.575, the relative viability (17-AAG + OSI-027; first compound 0.0128 µM) was 0.392 and the relative viability (17-AAG + OSI-027; first compound 0.04048 µM) was 0.241. For the same cell line, the relative viability (17-AAG + OSI-027; first compound 0.128 µM) was 0.18, the relative viability (17-AAG + Crizotinib; first compound 0.00128 µM) was 0.325 and the relative viability (17-AAG + Crizotinib; first compound 0.004048 µM) was 0.387. It also gave a relative viability (17-AAG + Crizotinib; first compound 0.0128 µM) of 0.433, a relative viability (17-AAG + Crizotinib; first compound 0.04048 µM) of 0.395 and a relative viability (17-AAG + Crizotinib; first compound 0.128 µM) of 0.295. For the same cell line, the relative viability (17-AAG + Trametinib; first compound 0.00128 µM) was 0.201, the relative viability (17-AAG + Trametinib; first compound 0.004048 µM) was 0.172 and the relative viability (17-AAG + Trametinib; first compound 0.0128 µM) was 0.163. For the same cell line, the relative viability (17-AAG + Trametinib; first compound 0.04048 µM) was 0.232 and the relative viability (17-AAG + Trametinib; first compound 0.128 µM) was 0.152.
With LCLC-103H the relative viability (17-AAG + Phenformin; first compound 0.00128 µM) was 0.351, the relative viability (17-AAG + Phenformin; first compound 0.004048 µM) was 0.345 and the relative viability (17-AAG + Phenformin; first compound 0.0128 µM) was 0.3. For the same cell line, the relative viability (17-AAG + Phenformin; first compound 0.04048 µM) was 0.346, the relative viability (17-AAG + Phenformin; first compound 0.128 µM) was 0.325 and the relative viability (17-AAG + OSI-027; first compound 0.00128 µM) was 0.484. It also gave a relative viability (17-AAG + OSI-027; first compound 0.004048 µM) of 0.496, a relative viability (17-AAG + OSI-027; first compound 0.0128 µM) of 0.478 and a relative viability (17-AAG + OSI-027; first compound 0.04048 µM) of 0.515. It also gave a relative viability (17-AAG + OSI-027; first compound 0.128 µM) of 0.383, a relative viability (17-AAG + Crizotinib; first compound 0.00128 µM) of 1.12 and a relative viability (17-AAG + Crizotinib; first compound 0.004048 µM) of 0.979. For the same cell line, the relative viability (17-AAG + Crizotinib; first compound 0.0128 µM) was 0.976, the relative viability (17-AAG + Crizotinib; first compound 0.04048 µM) was 0.928 and the relative viability (17-AAG + Crizotinib; first compound 0.128 µM) was 1.06. For the same cell line, the relative viability (17-AAG + Trametinib; first compound 0.00128 µM) was 0.711, the relative viability (17-AAG + Trametinib; first compound 0.004048 µM) was 0.692 and the relative viability (17-AAG + Trametinib; first compound 0.0128 µM) was 0.661. It also gave a relative viability (17-AAG + Trametinib; first compound 0.04048 µM) of 0.739 and a relative viability (17-AAG + Trametinib; first compound 0.128 µM) of 0.669.
Work on LK-2 yielded a relative viability (17-AAG + Phenformin; first compound 0.00128 µM) of 0.462, a relative viability (17-AAG + Phenformin; first compound 0.004048 µM) of 0.478 and a relative viability (17-AAG + Phenformin; first compound 0.0128 µM) of 0.194. For the same cell line, the relative viability (17-AAG + Phenformin; first compound 0.04048 µM) was 0.158, the relative viability (17-AAG + Phenformin; first compound 0.128 µM) was 0.135 and the relative viability (17-AAG + OSI-027; first compound 0.00128 µM) was 0.26. The relative viability (17-AAG + OSI-027; first compound 0.004048 µM) was 0.225, the relative viability (17-AAG + OSI-027; first compound 0.0128 µM) was 0.151 and the relative viability (17-AAG + OSI-027; first compound 0.04048 µM) was 0.138. For the same cell line, the relative viability (17-AAG + OSI-027; first compound 0.128 µM) was 0.144, the relative viability (17-AAG + Crizotinib; first compound 0.00128 µM) was 0.212 and the relative viability (17-AAG + Crizotinib; first compound 0.004048 µM) was 0.249. The relative viability (17-AAG + Crizotinib; first compound 0.0128 µM) was 0.357, the relative viability (17-AAG + Crizotinib; first compound 0.04048 µM) was 0.232 and the relative viability (17-AAG + Crizotinib; first compound 0.128 µM) was 0.176. For the same cell line, the relative viability (17-AAG + Trametinib; first compound 0.00128 µM) was 0.85, the relative viability (17-AAG + Trametinib; first compound 0.004048 µM) was 0.846 and the relative viability (17-AAG + Trametinib; first compound 0.0128 µM) was 0.789. For the same cell line, the relative viability (17-AAG + Trametinib; first compound 0.04048 µM) was 0.577 and the relative viability (17-AAG + Trametinib; first compound 0.128 µM) was 0.184.

— the supplement of paper PMC10307832
